Values after ≈ are worked out from the molar mass of the structure shown. Each block holds one molecule with its values, some of them ahead of it.
Tests used:
[1] = Oral maximum tolerated dose; details: in vivo, 300 mg/kg
[2] = Kinetic aqueous solubility (laser nephelometry); format: physicochemical; details: MilliQ water with 1.0% DMSO, aqueous with cosolvent or surfactant or cyclodextrin, kinetic from dmso stock
Text: (§1) inhibition at top, C= EC50, D= slope, x= inhibitor concentration and y= % inhibition. […]
(§2) reach 100% of inhibition, B was fixed to 100 only when at least 50% of inhibition was reached.
(§3) Plasmodium falciparum late stage (IV-V) gametocyte high content imaging assay Plasmodium falciparum NF54-pfs16-LUC-GFP stage IV-V Gametocytes were produced as described previously.5 Compounds were solubilized in DMSO and serially diluted in three concentrations per log standard curves in DM SO. One µl of compound was subsequently diluted in 25µl of water (4% DMSO) and 5µl transferred into the base of 384 well PerkinElmer CellCarrier plates. […]
Post incubation, 5µl of MitoTracker® Red CM -H2Xros (MTR) solution (0.66ug/ml) was added to all wells and the plates incubated for a further 16hours. The assay plates were then imaged and the number of viable gametocytes determined for test compounds plus 0.4%DMSO and 5µM Puromycin. […]
Assay was performed as previously reported.6 Briefly blood containing P. berghei CTRPp-GFP gametocytes was rapidly harvested from infected mice and introduced to test compounds pre-diluted in ookinete medium (to induce gamete formation and support ookinete development) in 96-well plates. […] All assays were performed in triplicate independent experiments and EC50 values calculated in Graphpad Prism. […]

[3] = Rat hepatic portal vein study; format: in vivo
[4] = Parallel artificial membrane permeability assay (PAMPA); format: in vitro ADME; details: relative to the earlier lead
[5] = Intrinsic clearance in rat hepatocytes; format: in vitro ADME
[6] = Mammalian cell growth inhibition counter-screen (resazurin); format: cell-based, human; details: human, MRC-5 cells (normal diploid human fibroblasts)
Description: Plasmodium falciparum screening
Assays against P. falciparum were conducted as previously described.1 Cultures of the widely-used malaria reference strain of chloroquine-sensitive Plasmodium falciparum strain 3D7 were maintained in a 5% suspension of human red blood cells (obtained from East of Scotland Blood Transfusion Service, Ninewells Hospital, Dundee) cultured in RPMI 1640 medium (pH 7.3) supplemented with 0.5% Albumax II (Gibco Life Technologies, San Diego, CA), 12 mM sodium bicarbonate, 0.2 mM hypoxanthine and 20 mg/L gentamicin at 37°C, in a humidified atmosphere of 1% O 2, 3% CO2 with a balance of nitrogen. Growth inhibition was quantified using a fluorescence assay utilising the binding of SYBR green to double stranded DNA, which emits a fluorescent signal at 528 nm after excitation at 485nm.2 Mefloquine (potency range 30-60 nM) was used as a drug control to monitor the quality of the assay (Z’ = 0.6 to 0.8, Signal to background >3, where Z’ is a measure of the discrimination between the positive and negative controls on a screen plate). A 96-well [3H]-Hypoxanthine incorporation assay was also developed as a secondary assay in order to validate compounds from the initial screen in an orthogonal platform.3 Compound bioactivity from both assays was expressed as […]
P. falciparum (panel of resistant strains) in vitro assay. (Swiss TPH)
All Plasmodium strains were cultured according to Trager and Jensen and are described at www.beiresources.org (resistant strains: K1, W2, 7G8, TM90C2A, D6 and V1/S, sensitive strain:
NF54). EC50 values were determined in vitro by measuring incorporation of the nucleic acid precursor […]
Mammalian Cell Growth Inhibition assay
A counter-screen against normal diploid human fibroblasts (MRC-5 cell line) was carried out to exclude non-selective, and toxic compounds. The assay was essentially carried out as described previously.4 Cells were plated and incubated overnight to allow them to adhere as monolayers. A working stock of each test compound was transferred to an intermediate 384-well plate and pre-diluted with minimum essential media (MEM). The pre-diluted stocks were then transferred onto the cell monolayers, and the plates were incubated for 68 h. Resazurin, to a final concentration of 50 μM, was added to each well, after which plates were incubated for a further 3 h and measured for fluorescence (λex=528 nm, λem=590 nm)
In vitro Cell Assay Data Analysis.
All data was processed using IDBS ActivityBase® raw data was converted into per cent inhibition through linear regression by setting the high inhibition control as 100% and the no inhibition control as 0%. Quality control criteria for passing plates were as follows: Z’> 0.5, S:B> 3, %CV(no inhibition < 15 . The formula used to calculate Z’ is 1 3× (St D e v _ hi gh + St D e v _ low) . […]
All EC50 Curve fitting was undertaken using XLFit version 4.2 using Model 205 with the following 4 parametric equation: y = A + B A A + ($-&) ,where A=% inhibition at bottom, B=% […]
as §1, §2
as §3, with “plates. Forty-five µl of stage IV-V gametocytes (10%P in 0.1%H) were added to the imaging plates which were in turn sealed with a gas permeable membrane and incubated at 37°C, 5% CO 2, 5% O2, 90% N2 and 60% humidity” for “plates.”
Post incubation, 5µl of MitoTracker® Red CM -H2Xros (MTR) solution (0.66ug/ml) was added to all wells and the plates incubated for a further 16hours. […]

Compound: O=C(NCCN1CCCC1)c1cc(NCCCN2CCOCC2)nc2ccc(F)cc12 [Compound 25, 6-Fluoro-2-((3-morpholinopropyl)amino)-N-(2-(pyrrolidin-1-yl)ethyl)quinoline-4-carboxamide]
MTD at 4 days [1]: > 300 mg/kg

Compound: O=C(NCCN1CCCC1)c1cc(NCCCCN2CCOCC2)nc2ccc(Cl)cc12 [Compound 27, 6-Chloro-2-((4-morpholinobutyl)amino)-N-(2-(pyrrolidin-1-yl)ethyl)quinoline-4-carboxamide]
solubility kinetic [2]: 220 µM (≈ 101 µg/mL)

hepatic extraction [3]: 76%
increase in permeability [4]: more than 20 fold
intrinsic clearance in rat hepatocytes (Cli) [5]: 3 mL min^–1 g^–1
Compound: O=C(NCCN1CCCC1)c1cc(NCCC2CCOCC2)nc2ccc(Cl)cc12 [Compound 30, 6-Chloro-N-(2-(pyrrolidin-1-yl)ethyl)-2-((2-(tetrahydro-2H-pyran-4-yl)ethyl)amino)quinoline-4-carboxamide]

Compound: O=C(NCCN1CCCC1)c1cc(-c2ccc(CN3CCOCC3)cc2Cl)nc2ccc(F)cc12 [Compound 42, 2-(2-Chloro-4-(morpholinomethyl)phenyl)-6-fluoro-N-(2-(pyrrolidin-1-yl)ethyl)quinoline-4-carboxamide]
EC50 at 68 h [6]: > 50 µM

Source: article PMC5108032, “Discovery of a Quinoline-4-carboxamide Derivative with a Novel Mechanism of Action, Multistage Antimalarial Activity, and Potent in Vivo Efficacy” (Journal of Medicinal Chemistry, 2016)
